Laboratory results from patent US11242312B2, “Dipeptidyl ketoamide meta-methoxyphenyl derivatives and uses thereof” (LANDSTEINER GENMED, S.L., priority 2018, dated 2022).

target: calpain 1 (Homo sapiens (Human), UniProt P07384); test: Assay for the determination of the capacity to inhibit calpain 1 (Calpain-Glo Protease kit); type: biochemical; conditions: Calpain-Glo luminescence; 16 ng/mL calpain 1; at least 6 concentrations; read-out: Calpain 1 inhibitory activity IC50
Procedure: Assay for the Determination of the Capacity to Inhibit Calpain 1
Activity of Calpain 1 was measured by using Calpain-Glo Protease kit from Promega. Assays were run in 384-well black plates with clear bottom. 5 μl of compounds in a 10 mM HEPES and 1 mM EDTA aqueous solution were incubated with 15 μL of a solution of 16 ng/mL calpain 1 (Sigma Aldrich) for 2 minutes and then 20 μL of Calpain-Glo™ Reagent provided in the kit were added to each well. Luminiscence elicited by calpain 1-induced substrate lysis was measured in a Hamamatsu FDSS 7000 reader and data was calculated from the maximal luminescence peak. Calpain inhibition was calculated from the formula: % inhibition=[…]; wherein LT is the luminescence observed in the tested compound, LB is blank luminescence obtained from a well without calpain 1 and LC is the luminescence observed in control wells including calpain1 in the absence of inhibitor.
All compounds were tested using, at least, 6 concentrations to allow calculate the IC50 (concentration that inhibits the activity of calpain 1 by 50%).
Calpastatin and ALLN were included as control inhibitors in all the assays.

Chain of calpain 1 (P07384 whole entry): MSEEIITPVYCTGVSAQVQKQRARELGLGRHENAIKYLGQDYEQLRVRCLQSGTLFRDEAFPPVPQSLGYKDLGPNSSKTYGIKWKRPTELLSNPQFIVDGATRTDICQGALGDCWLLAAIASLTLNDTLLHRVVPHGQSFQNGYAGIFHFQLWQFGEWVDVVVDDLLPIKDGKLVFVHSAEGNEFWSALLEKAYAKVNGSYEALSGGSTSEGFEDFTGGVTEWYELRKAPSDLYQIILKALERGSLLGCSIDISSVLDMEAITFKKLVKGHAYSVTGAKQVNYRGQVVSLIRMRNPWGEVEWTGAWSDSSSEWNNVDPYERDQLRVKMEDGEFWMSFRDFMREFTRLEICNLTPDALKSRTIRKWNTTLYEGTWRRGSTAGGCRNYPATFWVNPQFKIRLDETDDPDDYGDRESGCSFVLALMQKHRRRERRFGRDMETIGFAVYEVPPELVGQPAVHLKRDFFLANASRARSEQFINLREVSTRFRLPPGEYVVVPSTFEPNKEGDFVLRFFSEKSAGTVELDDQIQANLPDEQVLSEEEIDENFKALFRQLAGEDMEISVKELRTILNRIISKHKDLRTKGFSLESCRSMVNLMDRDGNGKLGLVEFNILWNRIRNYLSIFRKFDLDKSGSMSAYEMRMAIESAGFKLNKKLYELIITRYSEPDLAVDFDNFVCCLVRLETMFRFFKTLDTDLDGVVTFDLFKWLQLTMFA
Chain of calpain 1 (P04632 whole entry partner): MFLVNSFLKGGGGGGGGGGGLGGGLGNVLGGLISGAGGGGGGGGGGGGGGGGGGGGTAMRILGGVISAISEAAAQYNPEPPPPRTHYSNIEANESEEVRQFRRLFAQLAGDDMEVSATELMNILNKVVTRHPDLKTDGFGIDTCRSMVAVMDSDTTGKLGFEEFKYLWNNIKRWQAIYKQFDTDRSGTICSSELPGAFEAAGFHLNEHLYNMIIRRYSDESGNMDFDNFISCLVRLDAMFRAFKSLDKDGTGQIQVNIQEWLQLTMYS

In order of falling IC50:
1. COc1ccc(C(=O)N[C@@H](CC(C)C)C(=O)N[C@@H](Cc2ccccc2)C(=O)C(=O)NC2CC2)cc1 [Comp. Example 5, N-((S)-1-(((S)-4-(cyclopropylamino)-3,4-dioxo-1-phenylbutan-2-yl)amino)-4-methyl-1-oxopentan-2-yl)-4-methoxybenzamide, reference compound]  255 nM
2. COc1ccccc1C(=O)N[C@@H](CC(C)C)C(=O)N[C@@H](Cc1ccccc1)C(=O)C(=O)NC1CC1 [Comp. Example 6, N-((S)-1-(((S)-4-(cyclopropylamino)-3,4-dioxo-1-phenylbutan-2-yl)amino)-4-methyl-1-oxopentan-2-yl)-2-methoxybenzamide, reference compound]  110 nM
3. CONC(=O)C(=O)C(Cc1ccccc1)NC(=O)[C@H](CC1CC1)NC(=O)c1cccc(OC)c1 (stereo partly drawn) [Example 4, N-((S)-3-cyclopropyl-1-((4-(methoxyamino)-3,4-dioxo-1-phenylbutan-2-yl)amino)-1-oxopropan-2-yl)-3-methoxybenzamide]  7.1 nM
4. COc1cccc(C(=O)N[C@H](C(=O)NC(Cc2ccccc2)C(=O)C(=O)NC2CC2)C(C)C)c1 (stereo partly drawn) [Example 2, N-((S)-1-((4-(cyclopropylamino)-3,4-dioxo-1-phenylbutan-2-yl)amino)-3-methyl-1-oxobutan-2-yl)-3-methoxybenzamide]  2.2 nM
5. COc1cccc(C(=O)N[C@@H](CC(C)C)C(=O)N[C@@H](Cc2ccccc2)C(=O)C(=O)NC2CC2)c1 [Example 1, N-((S)-1-(((S)-4-(cyclopropylamino)-3,4-dioxo-1-phenylbutan-2-yl)amino)-4-methyl-1-oxopentan-2-yl)-3-methoxybenzamide]  0.03 nM
6. COc1cccc(C(=O)N[C@@H](CC2CC2)C(=O)NC(Cc2ccccc2)C(=O)C(=O)NC2CC2)c1 (stereo partly drawn) [Example 3, N-((S)-3-cyclopropyl-1-((4-(cyclopropylamino)-3,4-dioxo-1-phenylbutan-2-yl)amino)-1-oxopropan-2-yl)-3-methoxybenzamide]  0.008 nM
